Test results as given in PMC10535741, “Styrylpyridinium Derivatives for Fluorescent Cell Imaging” (Pharmaceuticals, 2023).

Assays:
[1] = UV/Vis absorption spectra in DMSO; assay type: physicochemical; conditions: 0.33 mM for 6a,b,d,f,g, 5 mM for 6c,e
Procedure: The resonance structures of compounds 6d,e (Figure 2a) show a possibly intramolecular charge transfer between the julolidine moiety and the pyridinium unit. The normalised fluorescence spectra of the tested compounds 6a–e and 7a,b in DMSO solution (Figure 2c) and the fluorescence spectra of compound 6e in various media (Figure 2d) were measured using a spectrophotometer multiplate reader (Infinite M1000). The UV/Vis spectra in DMSO solution of compounds 6a–g (Figure 2b) were reordered with a UV/Vis spectrophotometer, and the fluorescence spectra of compound 6e in EtOH–glycerol mixtures (Figure 2e) were collected with a Spectrofluorometer FS5.
The spectral properties (absorption and fluorescence maximum in DMSO solution) of compounds 6a–e and 7a,b, UV spectral data (extinction coefficient (log ε) and absorption maximum), values of Stokes’ shift, and fluorescence quantum yield are presented in Table 3.

[2] = MTT cytotoxicity assay, BHK-21; assay type: cell-based, Syrian hamster; conditions: Syrian hamster
Source text: (§1) For selected compounds, 6a–6f, we performed a determination of the cytotoxicity in a wider variety of cancer and non-cancerous cell lines (see Table S2, Supplementary Materials) in order to learn the characteristic features of selectivity or the similarity of biological properties.
(§2) The HT-1080 (human connective tissue fibrosarcoma, ATCC® CCL-121™), MH-22A (mouse hepatocarcinoma, ECACC Cat. No. 96121721), A-549 (human lung carcinoma, ATCC® CCL-185™), NIH3T3 (Swiss Albino mouse embryo fibroblast, ECACC Cat. No. 93061524), Hek293 (human embryonic kidney, ATCC® CRL-1573™), BHK-21 (Syrian hamster kidney, ATCC® CCL-10™), A-431 (human epidermoid carcinoma, ATCC® CRL-1555™), Saos-2 (human osteosarcoma, ATCC® HTB-85™), HeLa (human epitheloid cervix carcinoma, ATCC® CCL-2™), U937 (human myeloid leukaemia, ATCC® CRL-1593.2™), C6 (rat glioma, ATCC® CCL-107™), and B16-F10 (murine melanoma, ATCC® CRL-6475™) cell lines were obtained from the American Type Culture Collection (ATCC) and European Collection of Authenticated Cell Cultures (ECACC).
(§3) HT-1080, MH-22A, A-549, NIH3T3, BHK-21, A-431, HeLa, and B16-F10 cells were cultured in Dulbecco’s Modified Eagle’s Medium (DMEM) with 2 mM glutamine and 10% foetal bovine serum (FBS). Hek293 cells were cultured in Eagle’s Minimum Essential Medium with 10% foetal bovine serum. U937 cells were cultured in RPMI-1640 Medium with 2 mM glutamine and 10% foetal bovine serum. C6 cells were cultured in Ham’s F12 Medium with 2 mM glutamine and 10% foetal bovine serum. Saos-2 cells were cultured in McCoy’s 5a Medium with 2 mM glutamine and 10% foetal bovine serum. The cells were incubated at 37 °C with 5% CO2, 95% air, and complete humidity. Once ~90% confluence was reached, they were detached using 0.05% trypsin/EDTA and counted. The cells were plated at optimally determined densities for the logarithmic phase of growth. These cells were then suspended at a concentration of 4000 cells/well for HT-1080, MH-22A, A-549, NIH3T3, BHK-21, A-431, HeLa, B16-F10, Hek293, and Saos-2 cells and a concentration of 9000 cells/well for U937, C6, Hek293, and GM08402 cells and added onto a 96-well plate. For background absorption, some wells remained cell free, i.e., as a blank control. Cells were incubated for 72 h at 37 °C and 5% CO2 where they were exposed to a media containing serial dilutions of the investigated compounds (n = 3). Cell viability was measured using the 3-(4,5-dimethylthiazol-2-yl)-2,5-diphenyl-tetrazolium bromide (MTT) assay. In brief, after incubating with compounds, the culture medium was removed and fresh medium with 0.2 mg/mL MTT was added to each well of the plate. After incubation (3 h, 37 °C, 5% CO2), the medium with MTT solution was removed and replaced with 200 µL DMSO and 25 µL Sorenson’s glycine buffer (glycine 0.1 M, NaCl 0.1 M, pH: 10.5 with 0.1 M NaOH). The plate was shaken for 15 min at room temperature and the optical density (OD) of the wells was determined using a multichannel spectrophotometer (Thermo Scientific Multiskan EX) at 540 nm. The quantity of the control cells was taken in calculations as 100%. The IC50 value was calculated using the program Graph Pad Prism® 3.0.
(§4) The HT-1080 (human connective tissue fibrosarcoma, ATCC® CCL-121™), MH-22A (mouse hepatocarcinoma, ECACC Cat.No. 96121721), A-549 (human lung carcinoma, ATCC® CCL-185™), NIH 3T3 (mouse Swiss Albino embryo fibroblast, ECACC Cat.No. 93061524), Hek293 (human embryonic kidney, ATCC® CRL-1573™), BHK-21 (hamster Syrian kidney, ATCC® CCL-10™), A-431 (human epidermoid carcinoma, ATCC® CRL-1555™), Saos-2 (human oste osarcoma, ATCC® HTB-85™) HeLa (human epitheloid cervix carcinoma, ATCC® CCL-2™), U937 (human myeloid leukaemia, ATCC® CRL-1593.2™), C6 (rat glioma, ATCC® CCL-107™), B16-F10 (murine melanoma, ATCC® CRL-6475™) cell lines were obtained from American Type Culture Collection (ATCC) and European Collection of Authenticated Cell Cultures […]
(§5) Table S2. […]

in vitro [3] = assay type: cell-based, murine; conditions: mouse
Source text: as §1, §2
as §3, with “3.0. […]” for “3.0.”

in vitro [4] = assay type: cell-based, human; conditions: human, MTT, 72 h
Source text: as §1, §2, §3, §4, §5

in vitro [5] = assay type: cell-based, rat; conditions: rat
Source text: as §1, §2
as §3, with “3.0. […]” for “3.0.”

[6] = Photoluminescence quantum yield (PLQY); assay type: physicochemical; conditions: DMSO solution
Procedure: Photoluminescence quantum yield (PLQY) values for the DMSO solution of compounds 6a–g were measured (Table 3, entry 4). […] The PLQY values for the SP derivatives 6f,g (each with an N-dimethylaminophenyl moiety) were 1.6% and 1.4%, respectively. The PLQY value for the SP derivative 6c (with a 4-dimethylaminophenyl moiety) was only 0.1%. The PLQY values for the SP derivatives 6d,e (each with a julolidinyl moiety) were 0.5% and 0.7%, respectively. Previously, we designed naphthalene-2-yl)vinyl)pyridinium groups containing 1,4-dihydropyridine amphiphile, for which the PLQY value for the EtOH solution was 1% [20].

[7] = cancer cell line, MTT, 72 h, read-out: Cytotoxicity IC50 B16-F10
[8] = cancer cell line, read-out: Cytotoxicity IC50 A-431
[9] = cancer cell line, read-out: Cytotoxicity IC50 A-549
[10] = cancer cell line, read-out: Cytotoxicity IC50 HeLa
[11] = cancer cell line, read-out: Cytotoxicity IC50 Saos-2
[12] = cancer cell line, read-out: Cytotoxicity IC50 U937
[13] = non-cancerous cell line, read-out: Cytotoxicity IC50 Hek-293
[14] = cancer cell line, MTT, 72 h, read-out: Cytotoxicity IC50 C6

In the case of `CCCCCCCCCCCCCCCC[n+]1ccc(C=CC=Cc2cc3c4c(c2)CCCN4CCC3)cc1.[Br-]` [Compound 6e, 1-hexadecyl-4-(4-(2,3,6,7-tetrahydro-1H,5H-pyrido[3,2,1-ij]quinolin-9-yl)buta-1,3-dien-1-yl)pyridin-1-ium bromide], the “abs. max., λ, nm” value [1] is reported as 520 nm, the “log ε” value [1] is reported as 4.02 and the IC50 at 72 h [2] is reported as 2.7 µg/mL. For the same compound, the IC50 at 72 h (in vitro [3]; [7]) was 2.9 µg/mL, the IC50 at 72 h (in vitro [4]; [8]) was 1.9 µg/mL and the IC50 at 72 h (in vitro [4]; [9]) was 3 µg/mL. The IC50 at 72 h (in vitro [4]; [10]) was 1.3 µg/mL, the IC50 at 72 h (in vitro [4]; [11]) was 3.6 µg/mL and the IC50 at 72 h (in vitro [4]; [12]) was 2.4 µg/mL. For the same compound, the IC50 at 72 h (in vitro [4]; [13]) was 1.5 µg/mL, the IC50 at 72 h (in vitro [5]; [14]) was 3.4 µg/mL and the “PLQY, %” value [6] was 0.7%.
For `CCCCCCCCCCCCCCCC[n+]1ccc(C=CC=Cc2ccc(OC)cc2)cc1.[Br-]` [Compound 6c, 1-hexadecyl-4-(4-(4-methoxyphenyl)buta-1,3-dien-1-yl)pyridin-1-ium bromide], the “abs. max., λ, nm” value [1] was 408 nm, the “log ε” value [1] was 4.26 and the IC50 at 72 h [2] was 0.35 µg/mL. For the same compound, the IC50 at 72 h (in vitro [3]) was 0.49 µg/mL, the IC50 at 72 h (in vitro [5]) was 0.6 µg/mL and the “PLQY, %” value [6] was 0.1%.
`CCCCCCCCCCCC[n+]1ccc(C=Cc2cc3c4c(c2)CCCN4CCC3)cc1.[Br-]` [Compound 6d, 1-dodecyl-4-(2-(2,3,6,7-tetrahydro-1H,5H-pyrido[3,2,1-ij]quinolin-9-yl)vinyl)pyridin-1-ium bromide] gave an IC50 at 72 h [2] of 0.082 µg/mL, an IC50 at 72 h (in vitro [3]; [7]) of 0.113 µg/mL and an IC50 at 72 h (in vitro [4]; [8]) of 0.098 µg/mL. It also gave an IC50 at 72 h (in vitro [4]; [9]) of 0.055 µg/mL, an IC50 at 72 h (in vitro [4]; [10]) of 0.055 µg/mL and an IC50 at 72 h (in vitro [4]; [11]) of 0.79 µg/mL. The IC50 at 72 h (in vitro [4]; [12]) was 0.044 µg/mL, the IC50 at 72 h (in vitro [4]; [13]) was 0.012 µg/mL and the IC50 at 72 h (in vitro [5]; [14]) was 0.129 µg/mL. The “PLQY, %” value [6] was 0.5%.
In the case of `CCCCCCCCCCCCCCCC[n+]1ccc(C=Cc2cc(OC)c(OC)c(OC)c2)cc1.[Br-]` [Compound 6b], the “abs. max., λ, nm” value [1] is reported as 385 nm, the “log ε” value [1] is reported as 5.23 and the “PLQY, %” value [6] is reported as 12.2%.
With `CCCCCCCCCCCC[n+]1ccc(C=Cc2cc(OC)c(OC)c(OC)c2)cc1.[Br-]` [Compound 6a, 4-(3,4,5-trimethoxystyryl)-N-dodecylpyridinium bromide] the “abs. max., λ, nm” value [1] was 384 nm, the “log ε” value [1] was 5.46 and the IC50 at 72 h ([2]; non-cancerous cell line, MTT, 72 h, read-out: Cytotoxicity IC50 BHK-21) was 1.01 µg/mL. It also gave an IC50 at 72 h (in vitro [3]; [7]) of 0.8 µg/mL, an IC50 at 72 h (in vitro [4]; [8]) of 0.87 µg/mL and an IC50 at 72 h (in vitro [4]; [9]) of 0.87 µg/mL. The IC50 at 72 h (in vitro [4]; [10]) was 0.59 µg/mL, the IC50 at 72 h (in vitro [4]; [11]) was 0.37 µg/mL and the IC50 at 72 h (in vitro [4]; [12]) was 1.01 µg/mL. The IC50 at 72 h (in vitro [4]; [13]) was 0.22 µg/mL, the IC50 at 72 h (in vitro [5]; [14]) was 0.86 µg/mL and the “PLQY, %” value [6] was 15.1%.
